Results published in patent US6759410B1, “3,4-dihydro-(1H)-quinazolin-2-ones and their use as CSBP/p38 kinase inhibitors” (SmithLine Beecham Corporation, priority 1999, dated 2004).

melting point: 236 to 238 °C
SMILES: Cc1ccccc1-c1cccc2c1CNC(=O)N2c1ccccc1 [Example 14, 1-Phenyl-5-(2-methylphenyl)-3,4-dihydro-(1H)-quinazolin-2-one]
